Test [1] has as its system Belliella HPPD (SEQ ID NO: 12). In words: In vitro HPPD activity assay, tolerance index. Type of test: biochemical, Belliella baltica. The note with it: normalized on Arabidopsis wild-type HPPD. The method, then:
(§1) The activity assay for HPPD is based on the analysis of homogentisic acid by reversed phase HPLC.
(§2) The assay mixture can contain 150 mM potassium phosphate buffer pH 7.0, 50 mM L-ascorbic acid, 100 μM Catalase (Sigma-Aldrich), 1 μM FeSO4 and 0.2 units of purified HPPD enzyme in a total volume of 505 μl. 1 unit is defined as the amount of enzyme that is required to produce 1 nmol of HGA per minute at 20° C.
(§3) The reaction is allowed to proceed for 45 min at room temperature. The reaction is stopped by the addition of 50 μl of 4.5 M phosphoric acid. The sample is filtered using a […] pore size PVDF filtration device.
(§4) 5 μl of the cleared sample is analyzed on an UPLC HSS T3 column (particle size 1.8 μm, dimensions 2.1×50 mm; Waters) by isocratic elution using 90% 20 mM NaH2PO4 pH 2.2, 10% methanol (v/v).
(§5) HGA is detected electrochemically at 750 mV (mode: DC; polarity: positive) and quantified by integrating peak areas (Empower software; Waters).
(§6) Inhibitors are dissolved in DMSO (dimethylsulfoxide) to a concentration of 0.5 mM. From this stock solution serial five-fold dilutions are prepared in DMSO, which are used in the assay. The respective inhibitor solution accounts for 1% of the assay volume. Thus, final inhibitor concentrations range from 5 μM to 320 pM, respectively. Activities are normalized by setting the uninhibited enzyme activity to 100%. IC50 values are calculated using non-linear regression.
(§7) Using methods which are described in the above examples or well known in the art, purified, recombinant wildtype HPPD enzymes are characterized with respect to their kinetic properties and sensitivity towards HPPD inhibiting herbicides. Apparent michaelis constants (Km) and maximal reaction velocities (Vmax) are calculated by non-linear regression with the software GraphPad Prism 5 (GraphPad Software, La Jolla, USA) using a substrate inhibition model. […] Weighted means (by standard error) of Km and IC50 values are calculated from at least three independent experiments. The Cheng-Prusoff equation for competitive inhibition (Cheng, Y. C.; Prusoff, W. H. Biochem Pharmacol 1973, 22, 3099-3108) is used to calculate dissociation constants (Ki).
(§8) Field performance of the HPPD enzyme, which is used as a herbicide tolerance trait may depend not only on its lack of sensitivity towards HPPD inhibiting herbicides but also on its activity. To assess the potential performance of a herbicide tolerance trait a tolerance index (TI) is calculated using the following formula: […]
(§9) Easy comparison and ranking of each trait is enabled by normalizing tolerance indexes on Arabidopsis wild-type HPPD.

Test [2] deals with Scenedesmus HPPD (SEQ ID NO: 4). In words: In vitro HPPD activity assay, tolerance index. In kind it is biochemical, Scenedesmus obliquus. The note with it: normalized on Arabidopsis wild-type HPPD. The method, then: as §1, §2, §3, §4, §5, §6, §7, §8, §9
Test [3] deals with Herpetosiphon HPPD (SEQ ID NO: 26). In words: In vitro HPPD activity assay, tolerance index. Type of test: biochemical, Herpetosiphon aurantiacus. The note with it: normalized on Arabidopsis wild-type HPPD. The method, then: as §1, §2, §3, §4, §5, §6, §7, §8, §9
Test [4] has as its system Geodermatophilus HPPD (SEQ ID NO: 32). In words: In vitro HPPD activity assay, tolerance index. Type of test: biochemical, Geodermatophilus obscurus. The note with it: normalized on Arabidopsis wild-type HPPD. The method, then: as §1, §2, §3, §4, §5, §6, §7, §8, §9
Test [5] has as its target T1, Arabidopsis HPPD (SEQ ID NO: 42) (Arabidopsis thaliana, UniProt P93836).
T1 construct: Arabidopsis (42); His tag; made in house; host or cells: E. coli BL21 (DE3)
T1 sequence (P93836 1-445): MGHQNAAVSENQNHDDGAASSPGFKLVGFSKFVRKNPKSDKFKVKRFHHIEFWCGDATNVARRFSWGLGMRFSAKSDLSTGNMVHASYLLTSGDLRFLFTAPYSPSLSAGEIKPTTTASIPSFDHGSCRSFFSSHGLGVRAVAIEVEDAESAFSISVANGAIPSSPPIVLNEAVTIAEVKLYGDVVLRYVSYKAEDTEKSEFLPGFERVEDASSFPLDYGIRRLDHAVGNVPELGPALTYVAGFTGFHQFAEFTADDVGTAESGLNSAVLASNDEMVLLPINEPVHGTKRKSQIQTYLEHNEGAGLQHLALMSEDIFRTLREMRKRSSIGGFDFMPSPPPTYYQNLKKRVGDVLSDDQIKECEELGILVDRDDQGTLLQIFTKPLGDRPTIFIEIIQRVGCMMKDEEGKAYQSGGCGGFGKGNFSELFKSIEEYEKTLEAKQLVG
Description: In vitro HPPD activity assay (HGA by HPLC), wildtype enzyme characterization. In kind it is biochemical. The note with it: for TI (normalized tolerance index): normalized on Arabidopsis wild-type HPPD, reference enzyme. The method, then: as §1, §2, §3, §4, §5
Inhibitors are dissolved in DMSO (dimethylsulfoxide) to a concentration of 0.5 mM. From this stock solution serial five-fold dilutions are prepared in DMSO, which are used in the assay. The respective inhibitor solution accounts for 1% of the assay volume. […] Activities are normalized by setting the uninhibited enzyme activity to 100%. IC50 values are calculated using non-linear regression.
Using methods which are described in the above examples or well known in the art, purified, recombinant wildtype HPPD enzymes are characterized with respect to their kinetic properties and sensitivity towards HPPD inhibiting herbicides. Apparent michaelis constants (Km) and maximal reaction velocities (Vmax) are calculated by non-linear regression with the software GraphPad Prism 5 (GraphPad Software, La Jolla, USA) using a substrate inhibition model. […] Weighted means (by standard error) of Km and IC50 values are calculated from at least three independent experiments.
as §8, §9

In test [6] the test system is Microscilla HPPD (SEQ ID NO: 20). In words: In vitro HPPD activity assay, tolerance index. In kind it is biochemical, Microscilla marina. The note with it: normalized on Arabidopsis wild-type HPPD. The method, then:
as §1, §2, §3, §4, §5, §6, §7, §8, §9

For test [7], the system named is Nitritalea HPPD (SEQ ID NO: 14). Description: In vitro HPPD activity assay, tolerance index. In kind it is biochemical, Nitritalea halalkaliphila. The note with it: normalized on Arabidopsis wild-type HPPD. The method, then:
as §1, §2, §3, §4, §5, §6, §7, §8, §9

The subject of test [8] is Algoriphagus HPPD (SEQ ID NO: 22). Description: In vitro HPPD activity assay, tolerance index. In kind it is biochemical, Algoriphagus machipongonensis. The note with it: normalized on Arabidopsis wild-type HPPD. The method, then: as §1, §2, §3, §4, §5, §6, §7, §8, §9

The structures appear in SMILES notation.

For `CSc1c(Cl)cc(F)c(C(=O)Nc2nnnn2C)c1Cl` [Inhibitor 11, 2,4-dichloro-6-fluoro-3-methylsulfanyl-N-(1-methyltetrazol-5-yl)benzamide], the “TI (normalized tolerance index)” value is recorded as 0 in test [1]; 0.3 in test [2]; 0.2 in test [3]; 0.2 in test [4]; 1 in test [5]; 0.1 in test [6]. Further, the “TI (normalized tolerance index)” value in test [7] was determined as 0.
`CS(=O)(=O)c1ccc(C(=O)C2C(=O)CCCC2=O)c([N+](=O)[O-])c1` [Inhibitor 2, 2-(4-methylsulfonyl-2-nitro-benzoyl)cyclohexane-1,3-dione]: the “TI (normalized tolerance index)” value in test [1] turned out to be 0.1; in test [2] it was 0.1; in test [3], 0.4; in test [4] it was 0.7; in test [5] it was 1; in test [6], 0.2. Moreover, the “TI (normalized tolerance index)” value in test [7] was 0.
As for `CN(c1c(Cl)ccc(C2=C(O)c3ncccc3C(C)(C)S2(=O)=O)c1Cl)S(C)(=O)=O` [Inhibitor 4, N-[2,6-dichloro-3-(8-hydroxy-5,5-dimethyl-6,6-dioxo-thiopyrano[4,3-b]pyridin-7-yl)phenyl]-N-methyl-methanesulfonamide], the entries for the “TI (normalized tolerance index)” value in test [8], in test [5] and in test [6] were 132.5, 1 and 112.0, respectively. Moreover, in test [5], the affinity, expressed as Ki, was 29 nM. The “TI (tolerance index)” value in test [5] (not normalized) is 23.8E−3.

The values above are taken from US10619138B2, “Herbicide-resistant hydroxyphenylpyruvate dioxygenases” (BASF SE, priority 2013, dated 2020).
